What all share (assay type): cell-based
Assay [1] has as its system Myostatin. Put plainly: Reporter gene assay for myostatin signaling in HepG2 cell line, Evaluation Procedure (1), myostatin inhibition. The following applies: Method A; GDF-11 IC50 versus Myostatin IC50. In a few lines: (§1)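 HepG2 cells transfected with pGL3(CAGA)12-luciferase reporter, serum-starved in 0.1% BSA medium, then stimulated with myostatin or GDF-11 plus 4-fold peptide dilutions (0.006–100 nmol/L for myostatin, 0.12–2000 nmol/L for GDF-11) for 20–24 h at 37 °C. Luminescence read with One-Glo; IC50 calculated.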
A general note: A reporter such as luciferase makes a cellular process visible.

The target in assay [2] is T1, Myostatin (Homo sapiens, UniProt O14793).
T1 construct: active myostatin (also called mature myostatin) is a homodimer consisting of two C-terminal growth factor domains; purchased R&D systems 788-G8/CF
T1 sequence (O14793 267-375): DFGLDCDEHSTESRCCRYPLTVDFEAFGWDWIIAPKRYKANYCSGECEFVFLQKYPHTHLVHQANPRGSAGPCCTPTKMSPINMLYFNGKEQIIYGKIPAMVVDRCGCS
The assay is described as above. As to conditions: Method A: Myostatin 10 ng/mL; read-out: IC50 (Luciferase) Myostatin HepG2. In a few lines:
as §1

Another assay has as its target T2, GDF-11 (Homo sapiens, UniProt O95390).
T2 construct: purchased R&D systems 1958-GD-G8/CF
T2 sequence (O95390 299-407): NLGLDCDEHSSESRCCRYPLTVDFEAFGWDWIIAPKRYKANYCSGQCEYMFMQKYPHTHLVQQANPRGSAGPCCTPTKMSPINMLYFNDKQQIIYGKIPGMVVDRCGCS
Put plainly: Reporter gene assay for myostatin signaling in HepG2 cell line, Evaluation Procedure (1), GDF-11 inhibition. The following applies: Method A: GDF-11 10 ng/mL; read-out: IC50 (Luciferase) GDF-11 HepG2. In a few lines: as §1

Starred links: 1 amine or outer side, 2 acyl side, 3 side chain; linkers in the order of their positions; H or OH if unused. Positions of bridges follow the written chain, without caps; N, C: chain ends. Non-standard residues stand in square brackets, D forms with d. Residues, ends and D or L forms follow the SMILES beside them. Phe(3-OCH2COOH) = N[C@@H](Cc1cccc(OCC(=O)O)c1)C(=O)O; Phe(4-COOH) = N[C@@H](Cc1ccc(C(=O)O)cc1)C(=O)O; Bip = N[C@@H](Cc1ccc(-c2ccccc2)cc1)C(=O)O; Gly(N(CH2)3COOH) = O=C(O)CCCNCC(=O)O; X1 = CCCCCCC[C@H](N[*:1])C(=O)[*:2]; NMeF = CN[C@@H](Cc1ccccc1)C(=O)O; NMeA = CN[C@@H](C)C(=O)O; Sar = CNCC(=O)O

A word on the IC50: it is the concentration that gives 50% inhibition.

Regarding `CC[C@H](C)[C@@H]1NC(=O)[C@H](Cc2ccccc2)N(C)C(=O)[C@H](Cc2ccc(O)cc2)NC(=O)[C@H](Cc2ccc(-c3ccccc3)cc2)NC(=O)[C@H](C)NC(=O)CN(CCCC(=O)O)C(=O)CSC[C@H](C(=O)O)NC(=O)[C@H](Cc2ccccc2)N(C)C(=O)[C@H](C)N(C)C(=O)[C@H](CC(C)C)NC(=O)[C@H](Cc2ccccc2)N(C)C(=O)[C@H](CCCNC(=N)N)NC(=O)[C@H](Cc2ccc(C(=O)O)cc2)NC(=O)[C@H](Cc2ccc(O)cc2)NC(=O)CN(C)C1=O` [Myostatin_99_v176] ({CH2CO}-[Gly(N(CH2)3COOH)]A[Bip]Y[NMeF]I[Sar]Y[Phe(4-COOH)]R[NMeF]L[NMeA][NMeF][dC]-OH; thioether N-15), in the assay with Myostatin [1], the Selectivity was 22. Besides, the IC50 at Myostatin [2] worked out at 17.3 nM; on GDF-11, 377 nM.

In turn, `CC[C@H](C)[C@@H]1NC(=O)[C@H](Cc2ccccc2)N(C)C(=O)[C@H](Cc2ccc(O)cc2)NC(=O)[C@H](Cc2c[nH]c3ccccc23)NC(=O)[C@H](C)NC(=O)CN(CCCC(=O)O)C(=O)CSC[C@H](C(=O)O)NC(=O)[C@H](Cc2ccccc2)N(C)C(=O)[C@H](C)N(C)C(=O)[C@H](CC(C)C)NC(=O)[C@H](Cc2ccccc2)N(C)C(=O)[C@H](CCCNC(=N)N)NC(=O)[C@H](Cc2ccc(C(=O)O)cc2)NC(=O)[C@H](Cc2ccc(O)cc2)NC(=O)[C@H](C)N(C)C1=O` [Myostatin_99_v178] ({CH2CO}-[Gly(N(CH2)3COOH)]AWY[NMeF]I[NMeA]Y[Phe(4-COOH)]R[NMeF]L[NMeA][NMeF][dC]-OH; thioether N-15) yielded a Selectivity in the assay with Myostatin [1] of 21. For the same molecule, the IC50 at Myostatin [2] was 12.1 nM; at GDF-11, 250 nM.

For `CCCCCCC[C@@H]1NC(=O)[C@H](Cc2ccccc2)N(C)C(=O)[C@H](CCCNC(=N)N)NC(=O)[C@H](Cc2ccc(C(=O)O)cc2)NC(=O)[C@H](Cc2ccc(O)cc2)NC(=O)CN(C)C(=O)[C@H]([C@@H](C)CC)NC(=O)[C@H](Cc2ccccc2)N(C)C(=O)[C@H](Cc2ccc(O)cc2)NC(=O)[C@H](Cc2ccc(-c3ccccc3)cc2)NC(=O)[C@H](C)NC(=O)CN(CCCC(=O)O)C(=O)CSC[C@H](C(=O)O)NC(=O)[C@H](Cc2ccccc2)N(C)C(=O)[C@H](C)N(C)C1=O` [Myostatin_99_v179] ({CH2CO}-[Gly(N(CH2)3COOH)]A[Bip]Y[NMeF]I[Sar]Y[Phe(4-COOH)]R[NMeF][X1][NMeA][NMeF][dC]-OH; thioether N-15), the Selectivity in the assay with Myostatin [1] was determined as 108. Further, the IC50 on Myostatin [2] was found to be 1.5 nM; on GDF-11, 163 nM.

In turn, `CCCCCCC[C@@H]1NC(=O)[C@H](Cc2ccccc2)N(C)C(=O)[C@H](CCCNC(=N)N)NC(=O)[C@H](Cc2ccc(C(=O)O)cc2)NC(=O)[C@H](Cc2ccc(O)cc2)NC(=O)[C@H](C)N(C)C(=O)[C@H]([C@@H](C)CC)NC(=O)[C@H](Cc2ccccc2)N(C)C(=O)[C@H](Cc2ccc(O)cc2)NC(=O)[C@H](Cc2c[nH]c3ccccc23)NC(=O)[C@H](C)NC(=O)CN(CCCC(=O)O)C(=O)CSC[C@H](C(=O)O)NC(=O)[C@H](Cc2ccccc2)N(C)C(=O)[C@H](C)N(C)C1=O` [Myostatin_99_v181] ({CH2CO}-[Gly(N(CH2)3COOH)]AWY[NMeF]I[NMeA]Y[Phe(4-COOH)]R[NMeF][X1][NMeA][NMeF][dC]-OH; thioether N-15) came in with a Selectivity in the assay with Myostatin [1] of 43. Further, the IC50 was found to be 4.5 nM on Myostatin [2] and 194 nM at GDF-11.

Regarding `CC[C@H](C)[C@@H]1NC(=O)[C@H](Cc2ccccc2)N(C)C(=O)[C@H](Cc2ccc(O)cc2)NC(=O)[C@H](Cc2ccc(-c3ccccc3)cc2)NC(=O)[C@H](C)NC(=O)CN(CCCC(=O)O)C(=O)CSC[C@H](C(=O)O)NC(=O)[C@H](Cc2ccccc2)N(C)C(=O)[C@H](C)N(C)C(=O)[C@H](CC(C)C)NC(=O)[C@H](Cc2ccccc2)N(C)C(=O)[C@H](CCCNC(=N)N)NC(=O)[C@H](Cc2ccc(C(=O)O)cc2)NC(=O)[C@H](Cc2ccc(O)cc2)NC(=O)[C@H](C)N(C)C1=O` [Myostatin_99_v182] ({CH2CO}-[Gly(N(CH2)3COOH)]A[Bip]Y[NMeF]I[NMeA]Y[Phe(4-COOH)]R[NMeF]L[NMeA][NMeF][dC]-OH; thioether N-15), in the assay with Myostatin [1], the Selectivity was 26. Also, the IC50 is 53 nM at Myostatin [2] and 1360 nM at GDF-11.

Take `CC[C@H](C)[C@@H]1NC(=O)[C@H](Cc2ccccc2)N(C)C(=O)[C@H](Cc2ccc(O)cc2)NC(=O)[C@H](Cc2ccc(-c3ccccc3)cc2)NC(=O)[C@H](C)NC(=O)CN(CCCC(=O)O)C(=O)CSC[C@H](C(=O)O)NC(=O)[C@H](Cc2ccccc2)N(C)C(=O)[C@H](C)N(C)C(=O)[C@H](CC(C)C)NC(=O)[C@H](Cc2ccccc2)N(C)C(=O)[C@H](CCCNC(=N)N)NC(=O)[C@H](Cc2ccc(C(=O)O)cc2)NC(=O)[C@H](Cc2cccc(OCC(=O)O)c2)NC(=O)CN(C)C1=O` [Myostatin_99_v184] ({CH2CO}-[Gly(N(CH2)3COOH)]A[Bip]Y[NMeF]I[Sar][Phe(3-OCH2COOH)][Phe(4-COOH)]R[NMeF]L[NMeA][NMeF][dC]-OH; thioether N-15): the Selectivity with Myostatin [1] came to 129. The IC50 on Myostatin [2] was determined as 14.2 nM; on GDF-11, 1830 nM.

Turning to `CC[C@H](C)[C@@H]1NC(=O)[C@H](Cc2ccccc2)N(C)C(=O)[C@H](Cc2ccc(O)cc2)NC(=O)[C@H](Cc2ccc(-c3ccccc3)cc2)NC(=O)[C@H](CO)NC(=O)CN(CCCC(=O)O)C(=O)CSC[C@H](C(=O)O)NC(=O)[C@H](Cc2ccccc2)N(C)C(=O)[C@H](C)N(C)C(=O)[C@H](CC(C)C)NC(=O)[C@H](Cc2ccccc2)N(C)C(=O)[C@H](CCCNC(=N)N)NC(=O)[C@H](Cc2ccc(C(=O)O)cc2)NC(=O)[C@H](Cc2ccc(O)cc2)NC(=O)CN(C)C1=O` [Myostatin_99_v186] ({CH2CO}-[Gly(N(CH2)3COOH)]S[Bip]Y[NMeF]I[Sar]Y[Phe(4-COOH)]R[NMeF]L[NMeA][NMeF][dC]-OH; thioether N-15), in the assay on Myostatin [1], the Selectivity is on record as 22. Moreover, the results for the IC50 on Myostatin [2] and on GDF-11 were 43.2 nM and 935 nM, respectively.

Turning to `CC[C@H](C)[C@@H]1NC(=O)[C@H](Cc2ccccc2)N(C)C(=O)[C@H](Cc2ccc(O)cc2)NC(=O)[C@H](Cc2c[nH]c3ccccc23)NC(=O)[C@H](CO)NC(=O)CN(CCCC(=O)O)C(=O)CSC[C@H](C(=O)O)NC(=O)[C@H](Cc2ccccc2)N(C)C(=O)[C@H](C)N(C)C(=O)[C@H](CC(C)C)NC(=O)[C@H](Cc2ccccc2)N(C)C(=O)[C@H](CCCNC(=N)N)NC(=O)[C@H](Cc2ccc(C(=O)O)cc2)NC(=O)[C@H](Cc2ccc(O)cc2)NC(=O)[C@H](C)N(C)C1=O` [Myostatin_99_v188] ({CH2CO}-[Gly(N(CH2)3COOH)]SWY[NMeF]I[NMeA]Y[Phe(4-COOH)]R[NMeF]L[NMeA][NMeF][dC]-OH; thioether N-15), the Selectivity in the assay with Myostatin [1] was determined as 16. Further, the IC50 at Myostatin [2] came out at 55.4 nM; at GDF-11, 911 nM.

With `CC[C@H](C)[C@@H]1NC(=O)[C@H](Cc2ccccc2)N(C)C(=O)[C@H](Cc2ccc(O)cc2)NC(=O)[C@H](Cc2ccc(-c3ccccc3)cc2)NC(=O)[C@H](C)NC(=O)[C@H](C)NC(=O)CSC[C@H](C(=O)O)NC(=O)[C@H](Cc2ccccc2)N(C)C(=O)[C@H](C)N(C)C(=O)[C@H](CC(C)C)NC(=O)[C@H](Cc2ccccc2)N(C)C(=O)[C@H](CCCNC(=N)N)NC(=O)[C@H](Cc2ccc(C(=O)O)cc2)NC(=O)[C@H](Cc2ccc(O)cc2)NC(=O)CN(C)C1=O` [Myostatin_99_v189] ({CH2CO}-AA[Bip]Y[NMeF]I[Sar]Y[Phe(4-COOH)]R[NMeF]L[NMeA][NMeF][dC]-OH; thioether N-15), the Selectivity in the assay on Myostatin [1] turned out to be 34. Moreover, the figures for the IC50 on Myostatin [2] and on GDF-11 were 6.9 nM and 234 nM, respectively.

As for `CC[C@H](C)[C@@H]1NC(=O)[C@H](Cc2ccccc2)N(C)C(=O)[C@H](Cc2ccc(O)cc2)NC(=O)[C@H](Cc2c[nH]c3ccccc23)NC(=O)[C@H](C)NC(=O)[C@H](C)NC(=O)CSC[C@H](C(=O)O)NC(=O)[C@H](Cc2ccccc2)N(C)C(=O)[C@H](C)N(C)C(=O)[C@H](CC(C)C)NC(=O)[C@H](Cc2ccccc2)N(C)C(=O)[C@H](CCCNC(=N)N)NC(=O)[C@H](Cc2ccc(C(=O)O)cc2)NC(=O)[C@H](Cc2ccc(O)cc2)NC(=O)[C@H](C)N(C)C1=O` [Myostatin_99_v191] ({CH2CO}-AAWY[NMeF]I[NMeA]Y[Phe(4-COOH)]R[NMeF]L[NMeA][NMeF][dC]-OH; thioether N-15), in the assay with Myostatin [1], the Selectivity is on record as 35. Moreover, the IC50 on Myostatin [2] was 8.1 nM; at GDF-11, 283 nM.

For `CC[C@H](C)[C@@H]1NC(=O)[C@H](Cc2ccccc2)N(C)C(=O)[C@H](Cc2ccc(O)cc2)NC(=O)[C@H](Cc2c[nH]c3ccccc23)NC(=O)[C@H](C)NC(=O)[C@H](C)NC(=O)CSC[C@H](C(=O)O)NC(=O)[C@H](Cc2ccccc2)N(C)C(=O)[C@H](C)N(C)C(=O)[C@H](CC(C)C)NC(=O)[C@H](Cc2ccccc2)N(C)C(=O)[C@H](CCCNC(=N)N)NC(=O)[C@H](Cc2ccc(C(=O)O)cc2)NC(=O)[C@H](Cc2cccc(OCC(=O)O)c2)NC(=O)CN(C)C1=O` [Myostatin_99_v192] ({CH2CO}-AAWY[NMeF]I[Sar][Phe(3-OCH2COOH)][Phe(4-COOH)]R[NMeF]L[NMeA][NMeF][dC]-OH; thioether N-15), the Selectivity in the assay on Myostatin [1] stood at 170. Moreover, the 50% inhibitory concentration (IC50) at Myostatin [2] came to 12.1 nM; on GDF-11, 2060 nM.

Values taken from patent EP4786487A1, “PEPTIDE” (Peptidream Inc, priority 2023, dated 2025).
